The structures appear in SMILES notation. “And” between values parts separate entries of the source, which are not always exact repeats. Equal values may be shown once. Inconclusive results and toxic doses are left out.

For 24 compounds, T/C results are on record in PubChem BioAssay AID330 (DTP/NCI, 2004).

In the test the test system is P388 leukemia ip, CD2F1 mice, survival T/C. Put plainly: NCI In Vivo Anticancer Drug Screen. Data for tumor model P388 Leukemia (intraperitoneal) in CD2F1 (CDF1) mice. The following applies: endpoint: median survival time, higher = longer survival. A digest of the protocol:
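Mice carrying the transplanted tumor received test compound or vehicle. Survival was recorded in each group, and the value is the treated-group measurement divided by that of the vehicle-treated control group.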

[1] abbreviates: dose: 50.0 mg/kg/injection, schedule: Q01DX005 (ip), vehicle: Klucel (hydroxypropylcellulose) (HPC).
Setting [2] is: dose: 100.0 mg/kg/injection, schedule: Q01DX005 (ip), vehicle: Klucel (hydroxypropylcellulose) (HPC).
Setting [3] is: dose: 200.0 mg/kg/injection, schedule: Q01DX005 (ip), vehicle: Klucel (hydroxypropylcellulose) (HPC).
Where [4] appears, read: dose: 12.5 mg/kg/injection, schedule: Q01DX009 (ip), vehicle: saline.
Where [5] appears, read: dose: 25.0 mg/kg/injection, schedule: Q01DX009 (ip), vehicle: saline.
Where [6] appears, read: dose: 50.0 mg/kg/injection, schedule: Q01DX009 (ip), vehicle: saline with Tween-80.
[7] abbreviates: dose: 50.0 mg/kg/injection, schedule: Q01DX009 (ip), vehicle: saline.
[8] abbreviates: dose: 100.0 mg/kg/injection, schedule: Q01DX009 (ip), vehicle: saline with Tween-80.

With `CC(C)N1C(Nc2ccccn2)C(C)(C)C(C)(C)C1Nc1ccccn1` (stereo not given), the T/C reads like this: (dose: 30.0 mg/kg/injection, schedule: Q01DX005 (ip), vehicle: Klucel (hydroxypropylcellulose) (HPC)) 121 % of control; (dose: 240.0 mg/kg/injection, schedule: Q01DX005 (ip), vehicle: Klucel (hydroxypropylcellulose) (HPC)) 151 % of control and 164 % of control.

As for `Clc1ccc(N2C(c3ccccc3)=N[C@@H](N3CCOCC3)[C@@H]2N2CCOCC2)cc1`, the T/C under setting [1] was 100 % of control, the T/C under setting [2] is 100 % of control and the T/C under setting [3] was 105 % of control.

On to `CC1=Nc2ccc(C(F)(F)F)cc2NC(=O)C1`, for which the T/C was 100 % of control under setting [1]; 99 % of control and 97 % of control under setting [2]; 100 % of control and 96 % of control under setting [3].

For `CC1OC(O)C(O)C(O)C1O` (stereo not given), the T/C reads like this: under setting [1], 101 % of control; under setting [2], 93 % of control; under setting [3], 104 % of control.

For the compound `CC(C)(C)N=C(CCN1CCN(c2ccccc2)CC1)Nc1c(Cl)cccc1Cl`, the T/C was 91 % of control under setting [4]; 97 % of control under setting [5]; 94 % of control under setting [6]; 100 % of control under setting [7]; 96 % of control under setting [8].

For the compound `C=CN=NNc1ccccc1OC`, the T/C runs as follows: (dose: 100.0 mg/kg/injection, schedule: Q04DX003 (ip), vehicle: saline + Tween-80 + alcohol) 107 % of control; (dose: 200.0 mg/kg/injection, schedule: Q04DX003 (ip), vehicle: saline + Tween-80 + alcohol) 105 % of control; (dose: 400.0 mg/kg/injection, schedule: Q04DX003 (ip), vehicle: saline + Tween-80 + alcohol) 107 % of control.

As to `CC(COC(=O)c1cccc([N+](=O)[O-])c1C(=O)O)c1ccccc1` (stereo not given), the T/C (dose: 100.0 mg/kg/injection, schedule: Q04DX002 (ip), vehicle: saline with Tween-80) is 98 % of control; the T/C (dose: 200.0 mg/kg/injection, schedule: Q04DX002 (ip), vehicle: saline with Tween-80) was 109 % of control; the T/C (dose: 400.0 mg/kg/injection, schedule: Q04DX002 (ip), vehicle: saline with Tween-80) was 110 % of control.

In the case of `CC(C)CCCCCCCCCCCCC(O)CC(=O)O` (stereo not given), the T/C was 92 % of control (dose: 8.75 mg/kg/injection, schedule: Q01DX005 (ip), vehicle: Klucel + Tween-80); 86 % of control (dose: 17.5 mg/kg/injection, schedule: Q01DX005 (ip), vehicle: Klucel + Tween-80); 95 % of control (dose: 35.0 mg/kg/injection, schedule: Q01DX005 (ip), vehicle: Klucel + Tween-80).

Take `CSCC[C@@H]1C(=O)N(C)[C@H](C(C)(C)C)N1C(=O)c1ccccc1`: the T/C is 100 % of control (dose: 60.0 mg/kg/injection, schedule: Q01DX005 (ip), vehicle: saline with Tween-80); 100 % of control (dose: 120.0 mg/kg/injection, schedule: Q01DX005 (ip), vehicle: saline with Tween-80); 97 % of control (dose: 240.0 mg/kg/injection, schedule: Q01DX005 (ip), vehicle: saline with Tween-80).

As for `O=C(NC[N+]12CCO[B-]1(c1ccc(Cl)cc1)OCC2)c1ccccc1O` (stereo not given), the T/C is, setting by setting: under setting [1], 106 % of control; under setting [2], 98 % of control; under setting [3], 103 % of control.

For `CCCCCCCCCCCCCCCCN(CC)CC`, the T/C runs as follows: (dose: 2.5 mg/kg/injection, schedule: Q01DX009 (ip), vehicle: saline) 105 % of control; (dose: 5.0 mg/kg/injection, schedule: Q01DX009 (ip), vehicle: saline) 108 % of control; (dose: 10.0 mg/kg/injection, schedule: Q01DX009 (ip), vehicle: saline) 103 % of control.

Turning to `OC12CC3C4CC(O1)C1C4CC3C12` (stereo not given), the T/C is 102 % of control (dose: 60.0 mg/kg/injection, schedule: Q01DX005 (ip), vehicle: saline); 109 % of control (dose: 120.0 mg/kg/injection, schedule: Q01DX005 (ip), vehicle: saline); 109 % of control (dose: 240.0 mg/kg/injection, schedule: Q01DX005 (ip), vehicle: saline).

Consider `O=C(CCCCC(=O)N1CCOCC1)N1CCOCC1`, for which the T/C (dose: 50.0 mg/kg/injection, schedule: Q01DX005 (ip), vehicle: saline) was 100 % of control; the T/C (dose: 100.0 mg/kg/injection, schedule: Q01DX005 (ip), vehicle: saline) was 101 % of control; the T/C (dose: 200.0 mg/kg/injection, schedule: Q01DX005 (ip), vehicle: saline) was 101 % of control.

As to `CN(C)/C=C(\C#N)C=O`, the T/C (dose: 18.75 mg/kg/injection, schedule: Q01DX009 (ip), vehicle: saline sonified) was 118 % of control and the T/C (dose: 37.5 mg/kg/injection, schedule: Q01DX009 (ip), vehicle: saline sonified) is 109 % of control.

With `CCCCCCCCCCCCCCCCCC[N+]1(CC)CCCC1`, the T/C (dose: 6.25 mg/kg/injection, schedule: Q01DX009 (ip), vehicle: saline) is 97 % of control; the T/C under setting [4] is 97 % of control; the T/C under setting [5] was 97 % of control.

`COC(=O)C1C(C)C2CCCCC2CC1(C)O` (stereo not given): the T/C was 103 % of control (dose: 100.0 mg/kg/injection, schedule: Q04DX003 (ip), vehicle: Klucel (hydroxypropylcellulose) (HPC)); 112 % of control (dose: 200.0 mg/kg/injection, schedule: Q04DX003 (ip), vehicle: Klucel (hydroxypropylcellulose) (HPC)); 100 % of control (dose: 400.0 mg/kg/injection, schedule: Q04DX003 (ip), vehicle: Klucel (hydroxypropylcellulose) (HPC)).

`O=C(O)CCC(=O)C1=CSC(=C2SC=CS2)S1`: under “dose: 60.0 mg/kg/injection, schedule: Q01DX005 (ip), vehicle: Klucel + Tween-80”, the T/C is 106 % of control.

Take `CCOC(=O)CN1C(=S)N(c2ccc(C)cc2)C(=Nc2ccc(C)cc2)C1=Nc1ccc(C)cc1`: the T/C reads like this: (dose: 50.0 mg/kg/injection, schedule: Q01DX005 (ip), vehicle: Klucel + Tween-80) 96 % of control; (dose: 100.0 mg/kg/injection, schedule: Q01DX005 (ip), vehicle: Klucel + Tween-80) 91 % of control; (dose: 200.0 mg/kg/injection, schedule: Q01DX005 (ip), vehicle: Klucel + Tween-80) 90 % of control.

Consider `CCCCCCC1(/C=C/c2ccc(Cl)c(Cl)c2)OCCCO1`, for which the T/C is, setting by setting: (dose: 50.0 mg/kg/injection, schedule: Q01DX009 (ip), vehicle: saline + alcohol) 98 % of control; (dose: 100.0 mg/kg/injection, schedule: Q01DX009 (ip), vehicle: saline + alcohol) 93 % of control; (dose: 200.0 mg/kg/injection, schedule: Q01DX009 (ip), vehicle: saline + alcohol) 98 % of control.

As to `N/C(Cc1noc2ccc(F)cc12)=N\O`, the T/C runs as follows: under setting [7], 107 % of control; (dose: 100.0 mg/kg/injection, schedule: Q01DX009 (ip), vehicle: saline) 107 % of control.

Consider `CCCCOC1CCC2(C)C(=CCC3C2CCC2(C)C(C(C)CCCC(C)C)CCC32)C1` (stereo not given), for which the T/C runs as follows: (dose: 100.0 mg/kg/injection, schedule: Q04DX003 (sc), vehicle: steriod suspending solution) 104 % of control; (dose: 200.0 mg/kg/injection, schedule: Q04DX003 (sc), vehicle: steriod suspending solution) 100 % of control; (dose: 400.0 mg/kg/injection, schedule: Q04DX003 (sc), vehicle: steriod suspending solution) 100 % of control.

Take `COC1=C(OC)C(=O)C(CO)=CC1=O`: the T/C was 104 % of control (dose: 7.5 mg/kg/injection, schedule: Q01DX005 (ip), vehicle: saline) and 87 % of control (dose: 15.0 mg/kg/injection, schedule: Q01DX005 (ip), vehicle: saline).

As for `CC(=O)C(C#N)c1ccccn1` (stereo not given), the T/C under setting [6] is 106 % of control; the T/C under setting [8] was 105 % of control; the T/C (dose: 200.0 mg/kg/injection, schedule: Q01DX009 (ip), vehicle: saline with Tween-80) is 100 % of control.

Regarding `O=[N+]([O-])c1cc(Br)c2c(c1)CCN2`, the T/C reads like this: (dose: 25.0 mg/kg/injection, schedule: Q01DX009 (ip), vehicle: distilled water + Tween-80) 98 % of control; (dose: 50.0 mg/kg/injection, schedule: Q01DX009 (ip), vehicle: distilled water + Tween-80) 100 % of control; (dose: 100.0 mg/kg/injection, schedule: Q01DX009 (ip), vehicle: distilled water + Tween-80) 97 % of control; (dose: 200.0 mg/kg/injection, schedule: Q01DX009 (ip), vehicle: distilled water + Tween-80) 103 % of control; (dose: 400.0 mg/kg/injection, schedule: Q01DX009 (ip), vehicle: distilled water + Tween-80) 116 % of control.
